Source: US10189803B2, “Synthesis of therapeutic and diagnostic drugs centered on regioselective and stereoselective ring opening of aziridinium ions” (ILLINOIS INSTITUTE OF TECHNOLOGY, priority 2008, dated 2019)
“Also recorded” adds a separate entry of the source.

Assays:
[1] = In vitro serum stability of radiolabeled C-NE3TA complexes in human serum (SE-HPLC); type: in vitro ADME
Protocol: C-NE3TA was radiolabeled with ^90Y, ^177Lu, ^203Pb, ^205/6Bi, or ^153Gd as previously described (Chong, H. S.; Milenic, D. E.; Garmestani, K.; Brady, E. D.; Arora, H.; Pfiester, C.; Brechbiel, M. W., Nucl. Med. Biol. 2006, 33, 459-67; Chong H S, Garmestani K, Bryant Jr., L H Milenic D E, Overstreet T, Birch N, Le N, Brady E D, Brechbiel M W. J. Med. Chem. 2006, 49, 2055-2062). In vitro serum stability of the radiolabeled complexes purified via ion-exchange chromatography was performed to determine if C-NE3TA labeled with the radioisotopes remained stable without transchelation or loss of their respective radionuclide in human serum. This was assessed by measuring the transfer of radionuclide from the complex to serum proteins over the course of 11 days.
In vitro stability of the radiolabeled metal complexes. The stability of the purified radiolabeled complexes was evaluated in human serum (Gemini Bioproducts, Woodland, Calif.) for up to 11 days. The serum stability of the radiolabeled complexes was assessed by measuring the transfer of the radionuclide from each complex to serum proteins using SE-HPLC methods. Radiolabeled complexes were diluted to an appropriate volume that allowed for preparation of multiple samples containing 5-10 μCi and were filter-sterilized using a Millex-GV 0.22 μm filter. This stock solution was then mixed with 1400 μL of sterile normal human serum. Aliquots (200 μL) were drawn and separated into individual tubes for subsequent analysis using aseptic technique. The samples were incubated at 37° C., and at designated intervals, subjected to analysis by SE-HPLC. Samples were loaded onto the HPLC and eluted with PBS, pH 7.4 isocratically at 1 mL/min. […] Radioactivity associated with a transfer to serum proteins generally appeared at ˜6 min.

HT29 cells = assay: Antiproliferative activity, MTS assay, HT29 cells; type: cell-based, Human
Protocol: (§1) Cell culture Human cervix HeLa cell line was obtained from ATCC (Rockville, Md.) and cultured in minimum essential medium (MEM) with L-glutamine (2 mM), Earle's BSS and sodium bicarbonate (1.5 g/L), supplemented with 10% fetal bovine serum (FBS), non-essential amino acids (0.1 mM), sodium pyruvate (1 mM) and antibiotic/antimycotic solution in a humidified atmosphere with 5% CO2 at 37° C. […] Lung fibroblast MRC-5 cell line was obtained from ATCC (Rockville, Md.) and cultured in ATCC formulated EMEM, supplemented with 10% fetal bovine serum (FBS) in a humidified atmosphere with 5% CO2 at 37° C.
(§2) Antiproliferative Activity. Cells were seeded onto 96-well plate at density of 2,000 cells for Hela cells or 5,000 cells for HT29 cells or 5,000 cells for MRC-5 per well in 0.1 mL complete medium and allowed to attach for 24 h. Varying concentrations of the test compounds in the final volume of 0.1 mL complete medium were then added in at least five series dilutions and incubated for 72 h. To measure cell proliferation, the Cell Titer 96 aqueous nonreactive cell proliferation assay (Promega Life Sciences, Madison, Wis.) was used according to the manufacturer's instructions. Briefly, MTS (2 mg/mL) and PMS (0.92 mg/ml) were mixed in a ratio of 20:1. An aliquot (20 μL) of the MTS/PMS mixture was added into each well, and the plate was incubated for 3 h at 37° C. Optical absorbance at 490 nm was then recorded with an enzyme-linked immunosorbent assay (ELISA) microtiter plate reader (Biotek). Each experiment was done at least in triplicate. Antiproliferative activity of the test compounds was expressed as the fraction of optical densities of treated the cells relative to the untreated solvent controls.^31 The data were plotted in GraphPad Prizm 3.0. Nonlinear regression analysis was used to determine IC50 values.
(§3) Cell culture. Human cervix HeLa cell line was obtained from ATCC (Rockville, Md.) and cultured in minimum essential medium (MEM) with L-glutamine (2 mM), Earle's BSS and sodium bicarbonate (1.5 g/L), supplemented with 10% fetal bovine serum (FBS), non-essential amino acids (0.1 mM), sodium pyruvate (1 mM) and antibiotic/antimycotic solution in a humidified atmosphere with 5% CO2 at 37° C.
as §2, with “activity.” for “Activity.”, “cells” for “cells or 5,000 cells for MRC-5”, “controls.” for “controls.^31”

Hela cells [2] = assay: Antiproliferative activity, MTS assay, HeLa cells; type: cell-based, Human; conditions: for IC50: 72 h incubation, MTS
Protocol: as §1, §2, §3
as §2, with “activity.” for “Activity.”, “cells” for “cells or 5,000 cells for MRC-5”, “controls.” for “controls.^31”

Hela cells [3] = assay: Iron saturation experiment, Hela cell growth (MTS); type: cell-based, Human
Protocol: Cytotoxicity of the new chelators was measured in the HeLa and HT29 cancer cells and compared to that of the clinically used iron chelators DFO and DTPA. […] The preliminary cell culture experiments were performed to see ifNETA is an effective cytotoxic agent. […] In order to investigate the effect of the chelators on the cellular growth, the Hela cancer cells saturated with Fe(III)-citrate (50 μM) were incubated with each of the chelators (50 μM).
Iron Saturation Experiment Hela Cells were inoculated onto 96-well plates at density of 2,000 per well in 0.1 mL complete medium and incubated for 24 h. […] Control samples containing no ferric citriate were also tested. […] After the incubation, cells proliferation rates were evaluated by MTS assay.

[4] = In vitro serum stability of 205/6Bi-DEPA in human serum (SE-HPLC); type: in vitro ADME; parameters: Radiolabled Complex, in vitro serum stability (Table 1): unit not given here; conditions: for Radiolabled Complex, in vitro serum stability (Table 1): 37° C.
Protocol: The new ligand DEPA was radiolabeled with ^177Lu and ^205/6Bi (a surrogate of ^212Bi and ^213Bi) and the corresponding radiolabeled complexes were evaluated for in vitro serum stability as described previously. For comparison, DOTA was also radiolabeled with ^177Lu. DEPA and DOTA (0.25 M NH4OAc buffer, pH 4.0) was radiolabeled with ^177Lu at 45° C. for 0.5 h to afford ^177Lu-DEPA (Rf=0.6) and ^177Lu-DOTA (Rf=0.4) in the respective radiochemical yield of 90% and 95% as determined by radio-TLC. DEPA (0.25 M NH4OAc buffer, pH 5.0) was successfully radiolabeled with ^205/6Bi at room temperature for 1 h to afford ^205/6Bi-DEPA in 96% yield (radio-TLC). ^177Lu-DOTA, 177Lu-DEPA, and ^205/6Bi-DEPA formed were purified from unbound ^205/6Bi by ion-exchange chromatography using a Chelex-100 column (1 mL volume bed, 100-200 mesh, Na^+ form, Bio-Rad, Richmond, Calif.) eluted with PBS (pH 7.4). In vitro serum stability of the purified radiolabeled complexes was performed to determine if DEPA or DOTA radiolabeled with ^177Lu or ^205/6Bi remained stable without loss of the radionuclide in human serum. This was assessed by measuring the transfer of radionuclide from the complex to serum proteins. […] However, ˜10% of the radioactivity was released from ^177Lu-DOTA over 4 days.
In vitro serum stability of the radiolabeled metal complexes. An aliquot of 3.7 MBq of the purified ^177Lu-labeled ligands was added to 0.5 mL of mouse serum (Sigma, St. Louis, Mo.) and 0.1% NaN3. The resulting mixture was incubated at 37° C. for 96 h. Aliquots of 2 μL of the resulting mixture were analyzed by radio-TLC and HPLC at different time points, 0, 0.25, 0.5, 1, 2, 4, 6, 24, 48, and 96 h of incubation. The stability of purified ^205/6Bi-DEPA was evaluated in human serum (Gemini Bioproducts, Woodland, Calif.) for 14 days by measuring the transfer of the radionuclide from the complex to serum proteins as monitored by SE-HPLC. Radiolabeled complexes were diluted to an appropriate volume that allowed for preparation of multiple samples containing 5-10 μCi and filter-sterilized using a Millex-GV 0.22 μm filter. 140 μL of this stock solution was then mixed with 1400 μL of sterile normal human serum or saline. Aliquots (200 μL) were drawn and separated into individual tubes for subsequent analysis using aseptic technique. The samples were incubated at 37° C., and at designated intervals, subjected to analysis by SE-HPLC. Samples were loaded onto the HPLC and eluted with PBS, pH 7.4 isocratically at 1 mL/min. […] Radioactivity associated with a transfer to serum proteins generally appeared between ˜4.5-8 min.

[5] = Biodistribution of 205/6Bi-DEPA in normal athymic mice; type: in vivo
Protocol: Based on the promising data obtained from the AAIII based spectroscopic complexation kinetics and serum stability experiments, the stability of ^205/6Bi-DEPA was further evaluated by performing a biodistribution study in normal athymic mice as described previously. Blood levels and organ uptake of the radiolabeled complexes in mice were measured at five time points, 0.5, 1, 4, 8, and 24 h post-injection of ^205/6Bi-DEPA. […] Radioactivity that was detected in the blood and the organs was less than 2.44% ID/g at all points. At 24 h post injection, the % ID/g in the kidneys and spleen was 0.36±0.03% and 0.39±0.07%, respectively, which was slightly higher than that observed in other organs.

With `O=C(O)CNC(Cc1ccc([N+](=O)[O-])cc1)CN1CCN(CC(=O)O)CCN(CC(=O)O)CC1.[203Pb]` (stereo not shown) [^203Pb-C-NE3TA] the “stability in human serum (in words)” value ([1]; 37° C., up to 11 days) was “no measurable loss of radioactivity” and the “radionuclide dissociated from the complex” value ([1]; in 1 day) was ~40%.

In the case of `O=C(O)CNC(Cc1ccc([N+](=O)[O-])cc1)CN1CCN(CC(=O)O)CCN(CC(=O)O)CC1` (stereo not shown) [C-NE3TA, {4-Carboxymethyl-7-[2-(carboxymethyl-amino)-3-(4-nitro-phenyl)-propyl]-[1,4,7]triazonan-1-yl}-acetic acid], the IC50 (HT29 cells; Homo sapiens, HT-29, 72 h incubation) is reported as 5 ± 0.7 µM and the IC50 (Hela cells [2]; Homo sapiens) is reported as 7.1 ± 0.1 µM.

In the case of `O=C(O)CN1CCN(CCN(CC(=O)O)CC(=O)O)CCN(CC(=O)O)CC1` [NETA], the IC50 (HT29 cells; 72 h incubation) is reported as 7.3 ± 1.5 µM, the “anti-proliferative activity compared to DFO” value (Hela cells [3]; 50 μM, HeLa) is reported as “three-fold increased anti-proliferative activity compared to DFO” and the “effect on Hela cells saturated with Fe(III)-citrate (in words)” value (Hela cells [3]; chelator 50 μM, Fe(III)-citrate 50 μM) is reported as “almost no anti-proliferative activity”. The “HeLa cancer cells died” value (Hela cells [3]; free ligand 50 μM, no ferric citrate) was ~80%.

For `O=C([O-])CN1CCN(CCN(CC(=O)[O-])CC(=O)[O-])CCN(CC(=O)[O-])CCN(CC(=O)[O-])CC1.[Bi+3]` [^205/6Bi-DEPA], the “Radiolabled Complex, in vitro serum stability (Table 1)” value (“Radiolabled Complex” for short) ([4]; 0 h) was 100, the “Radiolabled Complex” value ([4]; 0.5 h) was 100 and the “Radiolabled Complex” value ([4]; 1 h) was 100. For the same compound, the “Radiolabled Complex” value ([4]; 2 h) was 100, the “Radiolabled Complex” value ([4]; 4 h) was 100 and the “Radiolabled Complex” value ([4]; 6 h) was 100. The “Radiolabled Complex” value ([4]; 24 h) was 100, the “Radiolabled Complex” value ([4]; 48 h) was 100 and the “Radiolabled Complex” value ([4]; 96 h) was 100. The “Radiolabled Complex” value ([4]; 120 h) was 100, the “Radiolabled Complex” value ([4]; 192 h) was 100 and the “Radiolabled Complex” value ([4]; 288 h) was 100. For the same compound, the “Radiolabled Complex” value ([4]; 336 h) was 100, the “serum stability of 205/6Bi complex (in words)” value ([4]; 14 days) was “no radioactivity was released over 14 days; also recorded: very stable in human serum for 2 weeks” and the “bone accumulation of the radioactivity” value ([5]; 0.5 h) was 2.02±0.96 % ID/gm. For the same compound, the “bone accumulation of the radioactivity” value ([5]; 1 h) was 0.38±0.09 % ID/gm, the “% ID/g in the kidneys” value ([5]; 24 h post injection) was 0.36±0.03 % ID/g and the “% ID/g in the spleen” value ([5]; 24 h post injection) was 0.39±0.07 % ID/g. The “Radioactivity detected in the blood and the organs” value ([5]; all time points, 0.5-24 h post-injection) was “less than 2.44 % ID/g” and the “in vivo stability and clearance (in words)” value ([5]; normal athymic mice) was “essentially inert in vivo and rapidly cleared from the body”.

With `O=C(O)CN1CCN(CCN(CC(=O)O)Cc2ccccc2)CCN(CC(=O)O)CC1` [Bn-NE3TA] the IC50 (HT29 cells; 72 h incubation) was 2.6 ± 0.2 µM, the IC50 (Hela cells [2]) was 4.4 ± 0.9 µM and the “cytotoxicity in HeLa cells over a series of concentrations (in words)” value (Hela cells [2]; FIG. 18) was “highest activity against HeLa cells”.
